Five compounds from patent US20250074891A1 (Anaxis Pharma Pty Ltd., priority 2021, published 2025) can be followed below.

The target of one assay is MLKL (full length) (Homo sapiens (Human), UniProt Q8NB16). Briefly: KINOMEscan binding assay, MLKL (full length). As to conditions: Table 36. How it is done: Kinase assays. For most assays, kinase-tagged T7 phage strains were grown in parallel in 24-well blocks in an E. coli host derived from the BL21 strain. E. coli were grown to log-phase and infected with T7 phage from a frozen stock (multiplicity of infection=0.4) and incubated with shaking at 32° C. until lysis (90-150 minutes).
The Hill Slope was set to −1.

The subject of assay [1] is U937 human histiocytic leukemia cell line. The assay can be described thus: Cellular assay: inhibition of TSQ induced necroptosis (CellTitre-Glo). As to conditions: Homo sapiens, U-937; U937 cells, TSQ cocktail, 48 hours, Table 38; read-out: Inhibition of TSQ-induced necroptosis (IC50 cell-based assay). In outline: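 U937 cells (20,000/well) pre-dosed with compound (10-point, 1:3 from 36 μM, 0.3% DMSO), then TSQ (hTNF-Fc 100 ng/ml, Smac mimetic 500 nM, Q-VD-OPh 10 μM) for 48 h at 37 °C. Viability by CellTiter-Glo luminescence, normalised to DMSO (100%) and DMSO+TSQ (0%); IC50 from 4-parameter fit.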

The next assay has as its system U937 cells. The assay can be described thus: Counter screen: cell viability without TSQ cocktail (off-target effect). Further details: species or system human. As to conditions: Homo sapiens, U-937, Table 38, read-out: Off-target effect (IC50 cell-based assay). How it is done:
Counter screen: In parallel, all compounds were tested for their ability to affect cell viability. The same U937 cells were treated with compound in DMSO without the TSQ cocktail. This counter screen enabled evaluation of off-target effects. In this case, cell viability was measured by CelltiterGlo.
A general note: Counterscreens check selectivity or assay interference.

A further assay concerns the target endogenous MLKL in U937 (Homo sapiens (Human), UniProt Q8NB16). Briefly: Degradation assay: degradation of endogenous MLKL in human cells (Western blot). As to conditions: 24 h incubation, read-out: Degradation of endogenous MLKL in U937 (DC50 cell-based assay in μM). A general note: A western blot detects proteins with antibodies after separation by electrophoresis.

For a further assay, the target named is MLKL (Homo sapiens (Human), UniProt Q8NB16). Briefly: Binding to MLKL (KD), in vitro. As to conditions: in vitro assays.

Where only a bound is given, the exact number is not on record here.

Chain of endogenous MLKL in U937 (Q8NB16 whole entry): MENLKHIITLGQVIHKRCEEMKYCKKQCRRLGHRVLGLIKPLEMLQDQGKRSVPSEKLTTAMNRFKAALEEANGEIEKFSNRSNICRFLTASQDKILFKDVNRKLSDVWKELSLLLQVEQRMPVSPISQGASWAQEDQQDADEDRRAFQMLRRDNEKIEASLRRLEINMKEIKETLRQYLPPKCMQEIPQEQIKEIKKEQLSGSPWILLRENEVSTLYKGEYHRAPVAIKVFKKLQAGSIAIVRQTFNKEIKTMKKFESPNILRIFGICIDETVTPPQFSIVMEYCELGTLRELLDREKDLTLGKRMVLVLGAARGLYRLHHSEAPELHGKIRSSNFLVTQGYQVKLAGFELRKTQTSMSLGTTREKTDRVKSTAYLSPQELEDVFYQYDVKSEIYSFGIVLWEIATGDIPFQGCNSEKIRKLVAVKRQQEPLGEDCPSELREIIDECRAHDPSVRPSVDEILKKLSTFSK
Chain of MLKL (full length) (Q8NB16 whole entry): as above
Chain of MLKL (Q8NB16 whole entry): as above

With `Cc1ncsc1-c1ccc(CNC(=O)[C@@H]2C[C@@H](O)CN2C(=O)[C@@H](NC(=O)CCCCOC(=O)c2ccc(Nc3[nH]nc(-c4ccc(NS(=O)(=O)C(F)F)c(O[C@@H](C)c5ccc(F)cc5)c4)c3C(N)=O)nc2)C(C)(C)C)cc1` [Compound 1051, 4-{[(2S)-1-[(2S,4R)-4-hydroxy-2-({[4-(4-methyl-1,3-thiazol-5-yl)phenyl]methyl}carbamoyl)pyrrolidin-1-yl]-3,3-dimethyl-1-oxobutan-2-yl]carbamoyl}butyl 6-({4-carbamoyl-3-[4-(difluoromethanesulfonamido)-3-[(1S)-1-(4-fluorophenyl)ethoxy]phenyl]-1H-pyrazol-5-yl}amino)pyridine-3-carboxylate], at MLKL (full length), the Kd – broadly, a measure of binding affinity in units of concentration – fell in the range of 10 to 1000 nM. Also, the values for the IC50 (in assay [1]; in the assay with U937 cells) were 1000 to 10000 nM and over 10000 nM, respectively. In addition, the DC50 – broadly, the concentration at which degradation of the target reaches its halfway point – on endogenous MLKL in U937 was 1 to 10 µM.

Compound `Cc1ncsc1-c1ccc(CNC(=O)[C@@H]2C[C@@H](O)CN2C(=O)[C@@H](NC(=O)CCCCOC(=O)c2ccc(Nc3[nH]nc(-c4ccc(NS(=O)(=O)C(F)F)c(F)c4)c3C(N)=O)nc2)C(C)(C)C)cc1` [Compound 1053] had a Kd on MLKL (full length) of under 10 nM. For the same compound, the IC50 (commonly the point on the concentration scale where inhibition reaches its midpoint) in assay [1] was 1000 to 10000 nM; in the assay with U937 cells, over 10000 nM. On endogenous MLKL in U937, the DC50 was in the range of 1 to 10 µM.

`CCS(=O)(=O)Nc1ccc(-c2n[nH]c(Nc3ccc(C(=O)OCCCCCC(=O)N[C@H](C(=O)N4C[C@H](O)C[C@H]4C(=O)NCc4ccc(-c5scnc5C)cc4)C(C)(C)C)cn3)c2C(N)=O)cc1O[C@@H](C)c1ccc(F)cc1` [Compound 1057, 5-{[(2S)-1-[(2S,4R)-4-hydroxy-2-({[4-(4-methyl-1,3-thiazol-5-yl)phenyl]methyl}carbamoyl)pyrrolidin-1-yl]-3,3-dimethyl-1-oxobutan-2-yl]carbamoyl}pentyl 6-[(4-carbamoyl-3-{4-ethanesulfonamido-3-[(1S)-1-(4-fluorophenyl)ethoxy]phenyl}-1H-pyrazol-5-yl)amino]pyridine-3-carboxylate] gave a Kd on MLKL (full length) of under 10 nM. Moreover, the figures for the IC50 (in assay [1]; in the assay with U937 cells) were under 1000 nM and over 10000 nM, respectively. In addition, at endogenous MLKL in U937, the DC50 is under 1 µM.

Regarding `CCS(=O)(=O)Nc1ccc(-c2n[nH]c(Nc3ccc(C(=O)OCCCCCCC(=O)N[C@H](C(=O)N4C[C@H](O)C[C@H]4C(=O)NCc4ccc(-c5scnc5C)cc4)C(C)(C)C)cn3)c2C(N)=O)cc1O[C@@H](C)c1ccc(F)cc1` [Compound 1058, 6-{[(2S)-1-[(2S,4R)-4-hydroxy-2-({[4-(4-methyl-1,3-thiazol-5-yl)phenyl]methyl}carbamoyl)pyrrolidin-1-yl]-3,3-dimethyl-1-oxobutan-2-yl]carbamoyl}hexyl 6-[(4-carbamoyl-3-{4-ethanesulfonamido-3-[(1S)-1-(4-fluorophenyl)ethoxy]phenyl}-1H-pyrazol-5-yl)amino]pyridine-3-carboxylate], the Kd on MLKL (full length) lay within 10 to 1000 nM. Further, the results for the IC50 (in assay [1]; in the assay with U937 cells) were under 1000 nM and over 10000 nM, respectively. Also, on endogenous MLKL in U937, the DC50 is under 1 µM.

`CCS(=O)(=O)Nc1ccc(-c2n[nH]c(Nc3ccc(C(=O)OCCCCC(=O)N[C@H](C(=O)N4C[C@H](O)C[C@H]4C(=O)NCc4ccc(-c5scnc5C)cc4)C(C)(C)C)cn3)c2C#N)cc1O[C@@H](C)c1ccc(F)cc1` [Compound 1061, 4-{[(2S)-1-[(2S,4R)-4-hydroxy-2-({[4-(4-methyl-1,3-thiazol-5-yl)phenyl]methyl}carbamoyl)pyrrolidin-1-yl]-3,3-dimethyl-1-oxobutan-2-yl]carbamoyl}butyl 6-[(4-cyano-3-{4-ethanesulfonamido-3-[(1S)-1-(4-fluorophenyl)ethoxy]phenyl}-1H-pyrazol-5-yl)amino]pyridine-3-carboxylate]: at MLKL, the Kd is about 2000 nM.
